Measured values taken from US8519110B2, “mRNA cap analogs” (Board of Supervisors of Louisiana State University And …, priority 2008, dated 2013).

Legend:
Human DcpS = target: T1, Human DcpS (Homo sapiens, UniProt Q96C86); assay: Assay of susceptibility to DcpS (RP HPLC); format: biochemical
T1 construct: made in house; host or cells: Escherichia coli
T1 sequence (Q96C86 1-337): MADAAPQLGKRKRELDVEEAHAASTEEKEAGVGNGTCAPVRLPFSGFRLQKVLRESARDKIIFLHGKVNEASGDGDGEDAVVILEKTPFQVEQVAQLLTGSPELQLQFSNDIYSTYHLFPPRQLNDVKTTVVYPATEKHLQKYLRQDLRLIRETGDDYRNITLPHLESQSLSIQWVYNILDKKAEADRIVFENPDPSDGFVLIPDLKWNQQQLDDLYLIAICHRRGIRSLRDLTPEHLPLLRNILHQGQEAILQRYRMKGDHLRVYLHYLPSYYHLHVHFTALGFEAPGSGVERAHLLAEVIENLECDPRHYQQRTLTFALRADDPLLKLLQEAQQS
Experimental: Human DcpS was expressed in Escherichia coli as described in L. Cohen et al., “Nematode m^7GpppG and m3^2,2,7GpppG decapping: activities in Ascaris embryos and characterization of C. elegans scavenger DcpS,” RNA, vol. 10, pp. 1609-1624 (2004). A 15 μM solution of the protein in 20 mM Tris buffer, pH 7.5, containing 50 mM KCl, 0.2 mM EDTA, 1 mM DTT, 0.5 mM PMSF, and 20% glycerol was stored at −80° C. until used. Enzymatic reactions were carried out at 30° C. in 500 μl of 50 mM Tris-HCl, pH 7.9, containing 20 mM MgCl2 and 60 mM (NH4)2SO4. A 40 μM solution of the selected cap analog was treated with 5.0 μl of DcpS for 120 min. At times of 10, 30, 60, and 120 min, a 100-μl sample was collected from the reaction mixture and deactivated by incubation at 90° C. for 2 min. Samples were analyzed without further treatment by analytical RP HPLC with a linear gradient of methanol in 0.1 M KH2PO4, pH 6.0, from 0-50% over 15 min.

eIF4E = eIF4E (Mus musculus, UniProt P63073); assay: Binding affinity of cap analogs to eIF4E by fluorescence titration; details: equilibrium association constant; for Cap analog/eIF4E affinity (KAS): 20 °C, pH 7.2, ionic strength 150 mM
Chain of eIF4E (P63073 28-217 limits assumed): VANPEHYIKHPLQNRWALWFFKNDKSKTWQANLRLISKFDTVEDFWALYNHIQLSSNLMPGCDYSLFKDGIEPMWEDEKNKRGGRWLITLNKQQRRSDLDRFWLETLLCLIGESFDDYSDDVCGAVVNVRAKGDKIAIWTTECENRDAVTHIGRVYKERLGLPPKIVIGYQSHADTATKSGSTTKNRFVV
Experimental: Fluorescence titration measurements were carried out on an LS-50B or LS-55 spectrofluorometer (Perkin Elmer Co.) at 20.0±0.2° C. in 50 mM HEPES/KOH (pH 7.2), 0.5 mM EDTA, and 1 mM DTT, with ionic strength adjusted to 150 mM by addition of KCl. Various cap analogue solutions, of increasing concentration, were added in 1 μl aliquots to 1.4 ml of 0.1 or 0.2 μM protein solutions. Fluorescence intensities were measured with excitation at 280 nm or 295 nm with 2.2 nm bandwidth, and detection at 337 nm with 4 nm bandwidth and a 290-nm cut-off filter. The data were corrected for sample dilution and inner filter effects. Equilibrium association constants (Kas) were determined by fitting the theoretical dependence of fluorescence intensity on cap analog concentration to the experimental data, as otherwise described in A. Niedźwiecka et al., “Biophysical studies of eIF4E cap-binding protein: recognition of mRNA 5′ cap structure and synthetic fragments of eIF4G and 4E-BP1 proteins,” J. Mol. Biol., vol. 312, pp. 615-635 (2002). The concentration of protein was allowed to be a free parameter in the equilibrium equation, to determine the amount of “active” protein. The final Kas was calculated as a weighted average of three to ten independent titrations, with the weights taken as the reciprocals of the squares of the numerical standard deviations. Numerical nonlinear least-square regression analysis was performed using ORGIN 6.0 (Microcal Software Inc., USA).
The binding affinities of eukaryotic eIF4E for various cap analogs were determined by fluorescence quenching. This biophysical test allows one to predict the potential efficacy of cap analogs in translation. Those having higher affinities for eIF4E than the unmodified cap analog (m^7GpppG) are expected to be better recognized by the translational machinery, leading to higher translational efficiencies. They also are expected to compete more effectively with unmodified mRNA when free cap dinucleotides are used to inhibit translation. See generally E. Grudzien-Nogalska et al., “Synthesis of anti-reverse cap analogs (ARCAs) and their applications in mRNA translation and stability,” Methods Enzymol., vol. 431, pp. 203-227 (2007).

[1] = tested on: rabbit reticulocyte lysate system; assay: In vitro translation efficiency of capped luciferase mRNA with 31-base poly(A) tail, method II transcripts; format: biochemical; details: for Translation efficiency in comparison to m^7GpppG-LUC-(A)31 mRNA, Experiment No. 4: experiment 4; for Translation efficiency in comparison to m^7GpppG-LUC-(A)31 mRNA, Experiment No. 5: experiment 5; for Translation efficiency in comparison to m^7GpppG-LUC-(A)31 mRNA, Mean: mean of experiments
Experimental: Capped, polyadenylated luciferase mRNAs were synthesized in vitro by PCR from a dsDNA template that contained the SP6 promoter, the 5′-UTR sequence of rabbit β-globin mRNA, the entire firefly luciferase coding region, and 31 adenosine residues. A typical transcription reaction mixture (40 μl) contained SP6 transcription buffer (Fermentas), 0.7 ug of DNA template, 1 U/μl RiboLock Ribonuclease Inhibitor (Fermentas), 0.5 mM each of ATP, CTP, and UTP, 0.1 mM GTP, and 0.5 mM dinucleotide cap analog. The reaction mixture was incubated at 37° C. for 5 min before addition of SP6 RNA polymerase (Fermentas) to a final concentration of 1 U/μl, and incubation then continued for 45 min at 37° C. The reaction mixture was treated with DNase as in Method I. RNA transcripts were purified with NucAway Spin Columns (Ambion). The integrity of transcripts and quantitation was performed as in Method I.
(§1) A micrococcal nuclease-treated rabbit reticulocyte lysate system (Flexi Rabbit Reticulocyte Lysate System, Promega) was used for in vitro translation. Translation reactions were performed in 10 μl for 60 min at 30° C. A typical reaction mixture contained 40% reticulocyte lysate, the 20 “standard” amino acids (0.01 mM each), MgCl2 (1.2 mM), potassium acetate (170 mM), and mRNA (five different concentrations of each transcript, ranging from 0.25 to 4 μg/ml). Luciferase activity was measured in a luminometer (Glomax, Promega). Linear regression was used to fit the data points (luciferase activity versus concentration of mRNA transcript), and translational efficiency was defined as the slope of this line. The relative translational efficiencies of the test mRNAs were compared to that of m^7GpppG-capped luciferase mRNA, the latter being defined as 1.0.

[2] = tested on: rabbit reticulocyte lysate system; assay: In vitro translation efficiency of capped luciferase mRNA, method I transcripts; format: biochemical; details: for Translation efficiency in comparison with m^7GpppG-LUC mRNA, Experiment No. 1: experiment 1; for Translation efficiency in comparison with m^7GpppG-LUC mRNA, Experiment No. 2: experiment 2; for Translation efficiency in comparison with m^7GpppG-LUC mRNA, Experiment No. 3: experiment 3; for Translation efficiency in comparison with m^7GpppG-LUC mRNA, Mean: mean of experiments
Experimental: A DNA template for in vitro transcription was synthesized by PCR from the plasmid SP6p-5′UTR β-globin-LUCiferase. The template contained the SP6 promoter followed by the 5′-UTR sequence of rabbit β-globin mRNA and the entire firefly luciferase mRNA coding region. A typical in vitro transcription reaction mixture (50 μl) contained SP6 transcription buffer (Fermentas, cat. no. EP0131), 2 μg of DNA template, 2 U/μl RiboLock Ribonuclease Inhibitor (Fermentas), 2 mM each of ATP, CTP, and UTP, 0.1 mM GTP, and 1 mM dinucleotide cap analog. The reaction mixture was incubated at 37° C. for 5 min before the addition of SP6 RNA polymerase (Fermentas) to a final concentration of 2 U/μl. After 30 min of incubation at 37° C., GTP was added to a final concentration of 1 mM, and the reaction continued for an additional 90 min. The reaction mixtures were then treated with 1 U of DNase RQ1 (RNAse-free, Promega) per μg of template DNA in transcription buffer at 37° C. for 20 min. RNA transcripts were purified on DEPC-treated Sephadex G-50 spin columns (Pharmacia). The integrity of transcripts was confirmed by electrophoresis on a non-denaturating, 1% agarose gel. Concentrations were determined spectrophotometrically. The transcripts were stored at −80° C. until used.
as §1

[3] = 40 μM cap analog, 30° C., up to 120 min

SMILES	Susceptibility to DcpS (Human DcpS; [3])	Cap analog/eIF4E affinity (KAS) (eIF4E) [μM^−1]	Translation efficiency in comparison to m^7GpppG-LUC-(A)31 mRNA, Experiment No. 4 [1]	Translation efficiency in comparison to m^7GpppG-LUC-(A)31 mRNA, Experiment No. 5 [1]	Translation efficiency in comparison to m^7GpppG-LUC-(A)31 mRNA, Mean [1]	Susceptibility to DcpS (Human DcpS; Table 3)	further results
C[n+]1cn([C@@H]2O[C@H](COP(=O)(O)OP(=O)(O)OP(=O)(O)OC[C@H]3O[C@@H](n4c[n+](C)c5c(=O)[nH]c(N)nc54)[C@H](O)[C@@H]3O)[C@@H](O)[C@H]2O)c2nc(N)[nH]c(=O)c21 [m^7Gpppm^7G, reference compound]	hydrolyzed	5.0 ± 0.2	–	–	–	–	–
CO[C@@H]1[C@H](O)[C@@H](COP(=O)([O-])OP(O)(=S)OP(=O)(O)OC[C@H]2O[C@@H](n3cnc4c(=O)[nH]c(N)nc43)[C@H](O)[C@@H]2O)O[C@H]1[n+]1cn(C)c2c(=O)[nH]c(N)nc21 (single isomer, unassigned) [m2^7,2′-OGppSpG (D2), m2^7,2′-OGppSpG, reference compound]	–	–	3.20	3.02	3.11	–	–
C[n+]1cn(C2OC(COP(O)(=[Se])OP(=O)([O-])OP(=O)(O)OCC3OC(n4cnc5c(=O)[nH]c(N)nc54)C(O)C3O)C(O)C2O)c2nc(N)[nH]c(=O)c21 (single isomer, unassigned) [m^7GpSeppG (D2), m^7GpSeppG]	–	–	–	–	–	resistant	–
[BH3-]P(=O)(OP(=O)(O)OCC1OC(n2cnc3c(=O)[nH]c(N)nc32)C(O)C1O)OP(=O)(O)OCC1OC(n2c[n+](C)c3c(=O)[nH]c(N)nc32)C(OC)C1O (single isomer, unassigned) [m2^7,2′-OGppBH3pG (D2), m2^7,2′-OGppBH3pG]	resistant	13.2 ± 0.2	3.16	3.53	3.35	–	–
CO[C@@H]1[C@H](O)[C@@H](COP(=O)(O)OP(=O)([O-])OP(=O)(O)OC[C@H]2O[C@@H](n3cnc4c(=O)[nH]c(N)nc43)[C@H](O)[C@@H]2O)O[C@H]1n1c[n+](C)c2c(O)nc(N)nc21 [m2^7,2′-OGpppG, reference compound]	hydrolyzed	10.8 ± 0.3	–	–	–	hydrolyzed	Cap analog-eIF4E affinity (KAS) (eIF4E; Table 3): 10.8 ± 0.3 μM^−1
C[n+]1cn(C2OC(COP(O)(=[Se])OP(=O)([O-])OP(=O)(O)OCC3OC(n4cnc5c(=O)[nH]c(N)nc54)C(O)C3O)C(O)C2O)c2nc(N)[nH]c(=O)c21 (single isomer, unassigned) [m^7GpSeppG (D1), m^7GpSeppG]	–	–	–	–	–	resistant	–
[BH3-]P(=O)(OP(=O)(O)OCC1OC(n2cnc3c(=O)[nH]c(N)nc32)C(O)C1O)OP(=O)(O)OCC1OC(n2c[n+](C)c3c(=O)[nH]c(N)nc32)C(OC)C1O (single isomer, unassigned) [m2^7,2′-OGppBH3pG (D1), m2^7,2′-OGppBH3pG]	resistant	39.4 ± 1.2	1.87	3.44	2.66	–	–
Nc1nc2c(ncn2[C@@H]2O[C@H](COP(=O)(O)OP(=O)(O)OP(=O)(O)OC[C@H]3O[C@@H](n4cnc5c(N)ncnc54)[C@H](O)[C@@H]3O)[C@@H](O)[C@H]2O)c(=O)[nH]1 [ApppG, reference compound]	–	–	0.19	0.18	0.19	–	Translation efficiency in comparison with m^7GpppG-LUC mRNA, Experiment No. 1 [2]: 0.34; Translation efficiency in comparison with m^7GpppG-LUC mRNA, Experiment No. 2 [2]: 0.55; Translation efficiency in comparison with m^7GpppG-LUC mRNA, Experiment No. 3 [2]: 0.53; Translation efficiency in comparison with m^7GpppG-LUC mRNA, Experiment No. 4 ([2]; experiment 4): 0.48; Translation efficiency in comparison with m^7GpppG-LUC mRNA, Mean [2]: 0.48; Translation efficiency in comparison to m^7GpppG-LUC-(A)31 mRNA, Experiment No. 1 ([1]; experiment 1): 0.27; Translation efficiency in comparison to m^7GpppG-LUC-(A)31 mRNA, Experiment No. 2 ([1]; experiment 2): 0.16; Translation efficiency in comparison to m^7GpppG-LUC-(A)31 mRNA, Experiment No. 3 ([1]; experiment 3): 0.14
CO[C@@H]1[C@H](O)[C@@H](COP(=O)([O-])OP(O)(=S)OP(=O)(O)OC[C@H]2O[C@@H](n3cnc4c(=O)[nH]c(N)nc43)[C@H](O)[C@@H]2O)O[C@H]1[n+]1cn(C)c2c(=O)[nH]c(N)nc21 (single isomer, unassigned) [m2^7,2′-OGppSpG (D1), m2^7,2′-OGppSpG, reference compound]	–	–	2.92	2.83	2.88	–	–
[BH3-]P(=O)(OP(=O)(O)OCC1OC(n2cnc3c(=O)[nH]c(N)nc32)C(O)C1O)OP(=O)(O)OCC1OC(n2c[n+](C)c3c(=O)[nH]c(N)nc32)C(O)C1O (mixture of isomers) [m^7GppBH3pG]	–	–	–	–	–	–	Translation efficiency in comparison with m^7GpppG-LUC mRNA, Experiment No. 1 [2]: 1.66; Translation efficiency in comparison with m^7GpppG-LUC mRNA, Experiment No. 2 [2]: 1.42; Translation efficiency in comparison with m^7GpppG-LUC mRNA, Experiment No. 3 [2]: 1.14; Translation efficiency in comparison with m^7GpppG-LUC mRNA, Mean [2]: 1.41; In vitro translational efficiency, method I ([2]; relative to m^7GpppG-capped luciferase mRNA = 1.0): 1.41 ± 0.26
